Assays:
Assay type in all cases: physicochemical
[1] = Hygroscopicity experiment by Dynamic Vapor Sorption (DVS); details: 25° C.; for hygroscopicity class: Chinese Pharmacopoeia 2015 definition, 80% RH; for weight gain: DVS, at 80% RH
Protocol: Dynamic Vapor Sorption (DVS) is measured via a SMS (Surface Measurement Systems Ltd.) intrinsic DVS. Its control software is DVS-Intrinsic control software, and its analysis software is DVS-Intrinsic analysis software. Typical Parameters for DVS test are as follows:
Gas and flow rate: N2, 200 mL/min
RH range: 0% RH to 95% RH
14.3 mg of Form CS1 was placed in a DVS instrument and underwent a cycle of 0%-95%-0% RH. The DVS curve is substantially as depicted in FIG. 12. A weight gain of 0.08% is observed at 80% RH.
8.6 mg of Form CS2 was placed in a DVS instrument and underwent a cycle of 40%-95%-0%-95% RH. A weight gain of 0.56% is observed at 80% RH.

[2] = Stability assessment under storage (XRPD for crystalline form, HPLC for chemical purity); details: for stability (overall conclusion): 25° C./60% RH and 40° C./75% RH for 1 month; for Purity / Initial purity: HPLC; for Initial purity: initial sample before storage; for Crystalline form: XRPD
Source text: X-ray powder diffraction pattern in the present disclosure was acquired by a Panalytical Empyrean X-ray powder diffractometer. The parameters of the X-ray powder diffraction method of the present disclosure were as follows:
High Performance Liquid Chromatography (HPLC) data in the present disclosure are collected from Agilent 1100 with diode array detector (DAD). The HPLC method parameters for purity test in the present disclosure are as follows:
1. Column: Waters Xbridge C18 150×4.6 mm, 5 μm
2. Mobile Phase: A: 0.1% TFA in H2O • B: 0.1% TFA in Acetonitrile • Gradient: […]
4. Injection Volume: 10 μL
5. Detection wavelength: 230 nm
6. Column Temperature: 40° C.
7. Diluent: 50% Acetonitrile
(§1) Form CS1 in the present disclosure was stored under different conditions of 25° C./60% RH and 40° C./75% RH for 1 month. Samples were taken at the end of 1 month. XRPD and HPLC were used to test the crystalline form and chemical purity. The XRPD overlay is shown in FIG. 14 (Above is the initial sample, in the middle is the sample placed under 25° C./60% RH for 1 month, at the bottom is the sample placed under 40° C./75% RH for 1 month).
as §1, with “CS2” for “CS1”, “The experimental results are summarized in Table 9. the” for “The”, “15” for “14”

[3] = Morphology test by polarized light microscopy (PLM); details: PLM image
Protocol: Form CS1 and Form CS2 in the present disclosure were tested by polarized light microscopy, and the results were depicted in FIG. 16 and FIG. 17. The morphologies of Form CS1 and Form CS2 are needle and block, respectively. Both forms disperse well and have little agglomeration. It can be seen from the PLM images that the morphologies of Form CS1 and Form CS2 in the present disclosure are suitable for the development of drug product.

hygroscopicity class [1] | weight gain [1] [%] | stability (overall conclusion) [2] | Purity ([2]; after 25° C./60% RH (1 month)) [%] | Purity ([2]; after 40° C./75% RH (1 month)) [%] | Initial purity [2] [%] | Crystalline form ([2]; after 25° C./60% RH (1 month)) | Crystalline form ([2]; after 40° C./75% RH (1 month)) | morphology [3] | Structure (SMILES)
almost non hygroscopic | 0.08 | good stability | 98.21 | 97.76 | 98.02 | unchanged | unchanged | needle | COc1cc2c(cc1OC)[C@H]1C[C@@H](OC(=O)[C@@H](N)C(C)C)[C@H](CC(C)C)CN1CC2 [Form CS1, (S)-2-amino-3-methyl-butyric acid (2R,3R,11bR)-3-isobutyl-9,10-dimethoxy-1,3,4 6,7,11b-hexahydro-2H-pyrido[2,1-a]isoquinolin-2-yl ester]
slightly hygroscopic | 0.56 | good stability | 98.60 | 97.38 | 98.34 | unchanged | unchanged | block | COc1cc2c(cc1OC)[C@H]1C[C@@H](OC(=O)[C@@H](N)C(C)C)[C@H](CC(C)C)CN1CC2 [Form CS2, (S)-2-amino-3-methyl-butyric acid (2R,3R,11bR)-3-isobutyl-9,10-dimethoxy-1,3,4 6,7,11b-hexahydro-2H-pyrido[2,1-a]isoquinolin-2-yl ester]

Reference: patent US10442800B2, “Crystal forms of NBI-98854, preparation method and use thereof” (Crystal Pharmaceutical (Suzhou) Co., Ltd., priority 2016, dated 2019)
